For 7 cell lines, relative viability results are on record in the supplement of paper PMC10307832.

Common to all, as to test: relative viability (nuclei count vs DMSO), 5 days (fraction); higher = more cells survive
Compound in assay [1]: C[C@]1(O)C[C@@H](c2nc(-c3ccc4ccc(-c5ccccc5)nc4c3)c3c(N)nccn32)C1 [Linsitinib] + Nc1nc2[nH]cc(CCc3ccc(C(=O)N[C@@H](CCC(=O)O)C(=O)O)cc3)c2c(=O)[nH]1 [Pemetrexed] (partner 0.2 µM)
The procedure, abridged:
(§1)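 Lung cancer cell lines in 1536-well plates got either a single drug or a fixed anchor-drug dose together with five library-drug doses (not always all listed) in √10 steps, by pin tool, on the day after seeding. Nuclei were counted after 5 days, and relative viability is the treated-to-vehicle ratio of nuclei counts. Values are medians of duplicate plates.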

Compound in assay [2]: C[C@]1(O)C[C@@H](c2nc(-c3ccc4ccc(-c5ccccc5)nc4c3)c3c(N)nccn32)C1 [Linsitinib] + CC(=O)Nc1cccc(-n2c(=O)n(C3CC3)c(=O)c3c(Nc4ccc(I)cc4F)n(C)c(=O)c(C)c32)c1 [Trametinib] (partner 0.02 µM)
A digest of the protocol: as §1

Compound in assay [3]: Cc1ccc(C(=O)N(CCCN)[C@@H](c2nc3cc(Cl)ccc3c(=O)n2Cc2ccccc2)C(C)C)cc1 [Ispinesib] + CS(=O)(=O)CCNCc1ccc(-c2ccc3ncnc(Nc4ccc(OCc5cccc(F)c5)c(Cl)c4)c3c2)o1 [Lapatinib] (partner 2 µM)
The procedure, abridged: as §1

Compound in assay [4]: Cc1ccc(C(=O)N(CCCN)[C@@H](c2nc3cc(Cl)ccc3c(=O)n2Cc2ccccc2)C(C)C)cc1 [Ispinesib] + CC(C)C[C@H](NC(=O)[C@H](Cc1ccccc1)NC(=O)c1cnccn1)B(O)O [Bortezomib] (partner 0.002 µM)
The procedure, abridged:
as §1

In the case of NCI-H661, the relative viability came out at 0.904 in assay [1] (first compound 0.01 µM); 0.738 in assay [1] (first compound 0.03162 µM); 0.9 in assay [1] (first compound 0.1 µM); 0.935 in assay [1] (first compound 0.3162 µM); 0.895 in assay [1] (first compound 1 µM); 0.657 in assay [2] (first compound 0.01 µM). Also, the relative viability was 0.616 in assay [2] (first compound 0.03162 µM); 0.533 in assay [2] (first compound 0.1 µM); 0.598 in assay [2] (first compound 0.3162 µM); 0.548 in assay [2] (first compound 1 µM); 0.52 in assay [3] (first compound 0.001 µM); 0.451 in assay [3] (first compound 0.003162 µM). In addition, the relative viability was determined as 0.444 in assay [3] (first compound 0.01 µM); 0.406 in assay [3] (first compound 0.03162 µM); 0.439 in assay [3] (first compound 0.1 µM); 0.821 in assay [4] (first compound 0.001 µM); 0.78 in assay [4] (first compound 0.003162 µM); 0.688 in assay [4] (first compound 0.01 µM). Also, the relative viability in assay [4] (first compound 0.03162 µM) came to 0.771; in assay [4] (first compound 0.1 µM) it was 0.665.

Regarding CAL-12T, the relative viability amounted to 1.25 in assay [1] (first compound 0.01 µM); 0.946 in assay [1] (first compound 0.03162 µM); 1.23 in assay [1] (first compound 0.1 µM); 1.14 in assay [1] (first compound 0.3162 µM); 1.13 in assay [1] (first compound 1 µM); 0.347 in assay [2] (first compound 0.01 µM). The relative viability stood at 0.364 in assay [2] (first compound 0.03162 µM); 0.292 in assay [2] (first compound 0.1 µM); 0.28 in assay [2] (first compound 0.3162 µM); 0.318 in assay [2] (first compound 1 µM); 0.625 in assay [3] (first compound 0.001 µM); 0.692 in assay [3] (first compound 0.003162 µM). Further, the relative viability in assay [3] (first compound 0.01 µM) was 0.742; in assay [3] (first compound 0.03162 µM), 0.488; in assay [3] (first compound 0.1 µM), 0.235; in assay [4] (first compound 0.001 µM), 0.961; in assay [4] (first compound 0.003162 µM), 1.4; in assay [4] (first compound 0.01 µM), 0.955. Moreover, the figures for the relative viability in assay [4] (first compound 0.03162 µM) and in assay [4] (first compound 0.1 µM) were 0.579 and 0.184, respectively.

With HARA, the relative viability in assay [1] (first compound 0.01 µM) was found to be 0.258; in assay [1] (first compound 0.03162 µM) it was 0.198; in assay [1] (first compound 0.1 µM), 0.22; in assay [1] (first compound 1 µM), 0.239; in assay [2] (first compound 0.01 µM), 0.448; in assay [2] (first compound 0.03162 µM), 0.809. The relative viability in assay [2] (first compound 0.1 µM) stood at 0.878; in assay [2] (first compound 1 µM), 0.623; in assay [3] (first compound 0.001 µM), 0.8; in assay [3] (first compound 0.003162 µM), 0.856; in assay [3] (first compound 0.01 µM), 0.987; in assay [3] (first compound 0.03162 µM), 0.151. Besides, the relative viability in assay [3] (first compound 0.1 µM) is 0.144; in assay [4] (first compound 0.001 µM), 1.37; in assay [4] (first compound 0.003162 µM), 1.21; in assay [4] (first compound 0.01 µM) it was 1.42; in assay [4] (first compound 0.03162 µM), 0.931; in assay [4] (first compound 0.1 µM), 0.211.

Turning to NCI-H596, the relative viability in assay [1] (first compound 0.01 µM) is 0.552; in assay [1] (first compound 0.03162 µM), 0.428; in assay [1] (first compound 0.1 µM), 0.497; in assay [1] (first compound 0.3162 µM), 0.447; in assay [1] (first compound 1 µM) it was 0.46; in assay [2] (first compound 0.01 µM), 0.705. Moreover, the relative viability in assay [2] (first compound 0.03162 µM) stood at 0.715; in assay [2] (first compound 0.1 µM), 0.74; in assay [2] (first compound 0.3162 µM), 0.827; in assay [2] (first compound 1 µM) it was 0.732; in assay [3] (first compound 0.001 µM), 0.978; in assay [3] (first compound 0.003162 µM), 1.18. The relative viability in assay [3] (first compound 0.01 µM) is 1.02; in assay [3] (first compound 0.03162 µM) it was 0.897; in assay [3] (first compound 0.1 µM) it was 0.402; in assay [4] (first compound 0.001 µM), 1.14; in assay [4] (first compound 0.003162 µM), 1.22; in assay [4] (first compound 0.01 µM), 1.12. Also, the relative viability in assay [4] (first compound 0.03162 µM) came out at 1.08; in assay [4] (first compound 0.1 µM) it was 0.463.

As to LU99A, the relative viability in assay [1] (first compound 0.01 µM) came out at 0.161; in assay [1] (first compound 0.03162 µM), 0.144; in assay [1] (first compound 0.1 µM), 0.193; in assay [1] (first compound 1 µM), 0.198; in assay [2] (first compound 0.01 µM), 0.524; in assay [2] (first compound 0.03162 µM), 0.602. Besides, the relative viability in assay [2] (first compound 0.1 µM) was 0.528; in assay [2] (first compound 1 µM), 0.493; in assay [3] (first compound 0.001 µM) it was 0.992; in assay [3] (first compound 0.003162 µM), 1.11; in assay [3] (first compound 0.01 µM), 1.14; in assay [3] (first compound 0.03162 µM), 0.192. Besides, the relative viability worked out at 0.201 in assay [3] (first compound 0.1 µM); 1.06 in assay [4] (first compound 0.001 µM); 1.12 in assay [4] (first compound 0.003162 µM); 1.33 in assay [4] (first compound 0.01 µM); 0.223 in assay [4] (first compound 0.03162 µM); 0.183 in assay [4] (first compound 0.1 µM).

Take LC-2-ad: the relative viability is 0.272 in assay [1] (first compound 0.01 µM); 0.264 in assay [1] (first compound 0.03162 µM); 0.256 in assay [1] (first compound 0.1 µM); 0.266 in assay [1] (first compound 0.3162 µM); 0.259 in assay [1] (first compound 1 µM); 0.906 in assay [2] (first compound 0.01 µM). The relative viability in assay [2] (first compound 0.03162 µM) was 0.718; in assay [2] (first compound 0.1 µM), 0.942; in assay [2] (first compound 0.3162 µM), 0.864; in assay [2] (first compound 1 µM), 0.827; in assay [3] (first compound 0.001 µM) it was 0.949; in assay [3] (first compound 0.003162 µM) it was 1.02. In addition, the relative viability worked out at 1.07 in assay [3] (first compound 0.01 µM); 0.504 in assay [3] (first compound 0.03162 µM); 0.114 in assay [3] (first compound 0.1 µM); 1.01 in assay [4] (first compound 0.001 µM); 1.07 in assay [4] (first compound 0.003162 µM); 1.07 in assay [4] (first compound 0.01 µM). In addition, the relative viability in assay [4] (first compound 0.03162 µM) was found to be 0.917; in assay [4] (first compound 0.1 µM), 0.119.

Consider NCI-H1650, for which the relative viability in assay [1] (first compound 0.01 µM) was 0.301; in assay [1] (first compound 0.03162 µM), 0.279; in assay [1] (first compound 0.1 µM), 0.379; in assay [1] (first compound 0.3162 µM), 0.334; in assay [1] (first compound 1 µM), 0.308; in assay [2] (first compound 0.01 µM) it was 0.592. Also, the relative viability in assay [2] (first compound 0.03162 µM) turned out to be 0.524; in assay [2] (first compound 0.1 µM), 0.537; in assay [2] (first compound 0.3162 µM), 0.464; in assay [2] (first compound 1 µM) it was 0.349; in assay [3] (first compound 0.001 µM), 0.799; in assay [3] (first compound 0.003162 µM), 0.715. In addition, the relative viability amounted to 0.387 in assay [3] (first compound 0.01 µM); 0.211 in assay [3] (first compound 0.03162 µM); 0.208 in assay [3] (first compound 0.1 µM); 0.187 in assay [4] (first compound 0.001 µM); 0.211 in assay [4] (first compound 0.003162 µM); 0.188 in assay [4] (first compound 0.01 µM). Also, the relative viability in assay [4] (first compound 0.03162 µM) turned out to be 0.173; in assay [4] (first compound 0.1 µM) it was 0.205.
